Activity calls are given as the source filed them. The calls are words filed in the database; no cut-off is given here.
Legend:
A2058 = assay: Antiproliferative activity against human A2058 cells at 5 to 0.02 uM after 72 hrs by […] staining based assay; type: functional, cell-based
SK-OV-3 = assay: Antiproliferative activity against human SKOV3 cells at 5 to 0.02 uM after 72 hrs by […] staining based assay; type: functional, cell-based
[1] = Half-life clearance in human hepatocytes; type: ADME, cell-based, Hepatocyte
[2] = Half-life in mouse hepatocytes; type: ADME, cell-based, Hepatocyte
[3] = Half-life in rat hepatocytes; type: ADME, cell-based, Hepatocyte
[4] = Half-life in dog hepatocytes; type: ADME, cell-based, Canis lupus familiaris, Hepatocyte
[5] = Intrinsic clearance in mouse hepatocytes assessed per 10^6 cells; type: ADME, cell-based, Hepatocyte; settings: read-out: CLH
[6] = Intrinsic clearance in dog hepatocytes assessed per 10^6 cells; type: ADME, cell-based, Canis lupus familiaris, Hepatocyte; settings: read-out: CLH
[7] = Intrinsic clearance in rat hepatocytes assessed per 10^6 cells; type: ADME, cell-based, Hepatocyte; settings: read-out: CLH
[8] = Intrinsic clearance in human hepatocytes assessed per 10^6 cells; type: ADME, cell-based, Hepatocyte; settings: read-out: CLH
[9] = target: Serine/threonine-protein kinase mTOR (Homo sapiens, UniProt P42345); assay: Displacement of Alexafluor labelled kinase tracer314 from recombinant human C-terminal GST-tagged mTOR (1360 to 2549 amino acids) expressed in insect cells incubated for 1 hr by FRET-based LanthaScreen Eu kinase binding assay
[10] = Inhibition of Class 1 PI3K/mTOR in human A2058 cells assessed as reduction in Akt phosphorylation at Ser473 residue incubated for 1 hr by InCell Western assay; type: cell-based; settings: A2058, 1 h
[11] = target: Phosphatidylinositol 4,5-bisphosphate 3-kinase catalytic subunit alpha isoform (Homo sapiens, UniProt P42336); assay: Displacement of Alexafluor labelled kinase tracer314 from recombinant N-terminal His6-tagged PI3K p110alpha (unknown origin) incubated for 1 hr by FRET-based LanthaScreen Eu kinase binding assay
cells = settings: Homo sapiens, A2058, 1 h
Description: Inhibition of Class 1 PI3K/mTOR in human A2058 cells assessed as reduction in S6 phosphorylation at Ser235/236 residue incubated for 1 hr by InCell Western assay

Phosphatidylinositol 4,5-bisphosphate 3-kinase catalytic subunit alpha isoform, sequence (P42336 whole entry, canonical isoform): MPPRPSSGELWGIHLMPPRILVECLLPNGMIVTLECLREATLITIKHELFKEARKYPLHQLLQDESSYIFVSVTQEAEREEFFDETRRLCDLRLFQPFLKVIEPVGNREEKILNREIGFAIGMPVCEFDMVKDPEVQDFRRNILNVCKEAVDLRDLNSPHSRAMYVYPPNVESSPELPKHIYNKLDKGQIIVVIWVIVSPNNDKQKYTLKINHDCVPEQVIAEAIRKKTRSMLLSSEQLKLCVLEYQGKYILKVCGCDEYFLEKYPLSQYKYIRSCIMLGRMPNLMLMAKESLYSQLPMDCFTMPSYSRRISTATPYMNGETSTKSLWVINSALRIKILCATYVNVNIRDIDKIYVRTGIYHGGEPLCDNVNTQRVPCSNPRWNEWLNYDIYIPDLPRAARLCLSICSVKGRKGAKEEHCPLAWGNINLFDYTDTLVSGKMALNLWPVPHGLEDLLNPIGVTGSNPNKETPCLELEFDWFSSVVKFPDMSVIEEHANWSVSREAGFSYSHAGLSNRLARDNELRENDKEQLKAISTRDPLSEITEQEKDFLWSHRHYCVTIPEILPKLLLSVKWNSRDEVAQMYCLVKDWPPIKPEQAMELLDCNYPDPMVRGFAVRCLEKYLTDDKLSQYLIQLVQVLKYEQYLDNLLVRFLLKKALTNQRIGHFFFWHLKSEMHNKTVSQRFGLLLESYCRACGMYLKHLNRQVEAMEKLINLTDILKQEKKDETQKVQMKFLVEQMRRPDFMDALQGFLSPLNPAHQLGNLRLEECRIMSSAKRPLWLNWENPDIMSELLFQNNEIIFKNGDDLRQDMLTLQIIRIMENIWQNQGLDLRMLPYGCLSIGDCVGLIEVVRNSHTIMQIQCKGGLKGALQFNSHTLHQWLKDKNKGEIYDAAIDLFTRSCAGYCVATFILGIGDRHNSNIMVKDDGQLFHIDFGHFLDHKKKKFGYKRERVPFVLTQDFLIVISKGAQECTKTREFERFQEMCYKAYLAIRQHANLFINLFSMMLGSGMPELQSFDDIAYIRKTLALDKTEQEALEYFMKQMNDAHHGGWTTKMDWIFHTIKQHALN

Ki [9] [nM] | IC50 [10] [nM] | Ki [11] [nM] | IC50 (cells) [nM] | Structure (SMILES) | also measured
– | – | – | – | Nc1cc(C(F)(F)F)c(-c2nc(N3CCOCC3)nc(N3CCOCC3)n2)cn1 | Activity (A2058): Active; Activity (SK-OV-3): Active
– | – | – | – | CCOc1ccc2ccc(=O)oc2c1 | half-life [1]: 70 min; half-life [2]: 18.7 min; half-life [3]: 46.2 min; half-life [4]: 8.49 min; hepatocyte CLint [5]: 74 µL/min/1e6 cells; hepatocyte CLint [6]: 163 µL/min/1e6 cells; hepatocyte CLint [7]: 30 µL/min/1e6 cells; hepatocyte CLint [8]: 20 µL/min/1e6 cells
265 | 610 | 37 | 531 | C[C@H]1COC[C@H](C)N1c1nc(-c2cnc(N)cc2C(F)(F)F)nc(N2[C@@H](C)COC[C@@H]2C)n1 | –
76.8 | 755 | 4640 | 299 | Nc1cc(C(F)(F)F)c(-c2nc(N3C4CCC3COC4)nc(N3C4CCC3COC4)n2)cn1 | –
177 | 947 | 731 | 691 | Nc1cc(C(F)(F)F)c(-c2nc(N3CC4CCC(C3)O4)nc(N3CC4CCC(C3)O4)n2)cn1 | –
– | – | – | – | O=c1ccc2ccc(O)cc2o1 [UMBELLIFERONE] | half-life [1]: 21.1 min; half-life [2]: 11.9 min; half-life [3]: 11.1 min; half-life [4]: 10.2 min; hepatocyte CLint [5]: 116 µL/min/1e6 cells; hepatocyte CLint [6]: 138 µL/min/1e6 cells; hepatocyte CLint [7]: 124 µL/min/1e6 cells; hepatocyte CLint [8]: 65.5 µL/min/1e6 cells
15.3 | 77.3 | 4.1 | 146 | C[C@H]1COCCN1c1nc(-c2cnc(N)nc2C(F)F)cc(N2CCOCC2)n1 | –
19.3 | 122 | 27.4 | 135 | C[C@@H]1COC[C@H](C)N1c1nc(-c2cnc(N)cc2C(F)(F)F)nc(N2CCOCC2)n1 | –
39.6 | 567 | 31.4 | 437 | C[C@@H]1COC[C@H](C)N1c1nc(-c2cnc(N)cc2C(F)(F)F)nc(N2[C@H](C)COC[C@@H]2C)n1 | –
109 | 373 | 53.7 | 410 | C[C@@H]1COCCN1c1nc(-c2cnc(N)cc2C(F)(F)F)nc(N2CCOCC2)n1 | –
37.9 | 91 | 4 | 164 | C[C@H]1COCCN1c1nc(-c2cnc(N)nc2C(F)(F)F)nc(N2CCOCC2)n1 | –
47.8 | 274 | 31 | 212 | Nc1cc(C(F)(F)F)c(-c2nc(N3CCOCC3)nc(N3CC4CCC(C3)O4)n2)cn1 | –

Reference: ChEMBL document CHEMBL4359834 (J Med Chem, 2019)
